This is an account of results in publication PMC6449406, “Classification of the human phox homology (PX) domains based on their phosphoinositide binding specificities” (Nature Communications, 2019).

Common to all, as to experiment: liposome pelleting
Format in all cases: binding
What all share (details): 10 mol% lipid in POPC/POPE liposomes, 20 µM protein, pH 7.2, 125 mM NaCl

One assay deals with T1, p40phox (Homo sapiens, UniProt Q15080).
T1 construct: gene NCF4; PX domain only, N-terminal GST removed by thrombin, E. coli
T1 sequence (Q15080 19-140 limits assumed): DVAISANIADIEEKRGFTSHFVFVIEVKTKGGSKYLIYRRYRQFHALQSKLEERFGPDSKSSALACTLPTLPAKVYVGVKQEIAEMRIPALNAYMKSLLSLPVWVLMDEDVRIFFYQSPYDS

For a further assay, the target named is T2, SNX3 (Homo sapiens, UniProt O60493).
T2 construct: PX domain only, N-terminal GST removed by thrombin, E. coli
T2 sequence (O60493 27-151 limits assumed): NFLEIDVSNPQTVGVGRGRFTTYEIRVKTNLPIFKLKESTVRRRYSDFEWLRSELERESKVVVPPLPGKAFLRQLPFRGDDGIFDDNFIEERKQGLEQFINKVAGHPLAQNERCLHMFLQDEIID

For a further assay, the target named is T3, SNX7 (Homo sapiens, UniProt Q9UNH6).
T3 construct: PX domain only, N-terminal GST removed by thrombin, E. coli
T3 sequence (Q9UNH6 30-151 limits assumed): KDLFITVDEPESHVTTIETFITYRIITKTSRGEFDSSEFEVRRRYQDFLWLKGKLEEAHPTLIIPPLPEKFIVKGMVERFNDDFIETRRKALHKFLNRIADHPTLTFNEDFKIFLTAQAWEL

Another assay deals with T4, SNX16 (Homo sapiens, UniProt P57768).
T4 construct: PX domain only, N-terminal GST removed by thrombin, E. coli
T4 sequence (P57768 105-218 limits assumed): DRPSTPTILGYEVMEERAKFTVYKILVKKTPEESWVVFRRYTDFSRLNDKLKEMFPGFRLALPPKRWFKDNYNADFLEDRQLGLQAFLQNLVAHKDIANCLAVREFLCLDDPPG

The next assay concerns the target T5, SNX17 (Homo sapiens, UniProt Q15036).
T5 construct: PX domain only, N-terminal GST removed by thrombin, E. coli
T5 sequence (Q15036 1-109 limits assumed): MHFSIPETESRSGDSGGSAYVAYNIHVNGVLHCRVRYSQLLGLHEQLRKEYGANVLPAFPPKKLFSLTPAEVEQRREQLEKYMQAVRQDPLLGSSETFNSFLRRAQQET

The next assay concerns the target T6, SNX27 (Homo sapiens, UniProt Q96L92).
T6 construct: PX domain only, N-terminal GST removed by thrombin, E. coli

A further assay addresses T7, SNX19 (Homo sapiens, UniProt Q92543).
T7 construct: a GST-tagged form was also made), E. coli
T7 sequence (Q92543 533-663 limits assumed): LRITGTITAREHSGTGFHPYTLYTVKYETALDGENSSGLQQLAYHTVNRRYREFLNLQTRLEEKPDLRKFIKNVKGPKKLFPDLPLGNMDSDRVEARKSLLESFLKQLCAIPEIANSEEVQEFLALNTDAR

A further assay addresses T8, PXK (Homo sapiens, UniProt Q7Z7A4).
T8 construct: PX domain only, N-terminal GST removed by thrombin, E. coli
T8 sequence (Q7Z7A4 14-126 limits assumed): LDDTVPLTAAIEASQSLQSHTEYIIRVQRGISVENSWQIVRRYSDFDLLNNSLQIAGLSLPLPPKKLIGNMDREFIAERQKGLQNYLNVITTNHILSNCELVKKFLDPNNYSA

In the case of `CCCCCCCC(=O)OC[C@H](COP(=O)(O)O[C@@H]1[C@H](O)[C@H](OP(=O)(O)O)[C@@H](O)[C@H](O)[C@H]1O)OC(=O)CCCCCCC` [PtdIns3P, 1,2-dioctanoyl-sn-glycero-3-(phosphoinositol-3-phosphate)], the liposome pelleting entry on p40phox is “(SNX3, SNX7, SNX19, SNX17, SNX27, p40phox, PXK, and SNX16)”; at SNX3 it was “exclusive interaction with liposomes containing PtdIns3P (SNX3”; on SNX7, “exclusive interaction with liposomes containing PtdIns3P (SNX3, SNX7”; at SNX16, “(SNX3, SNX7, SNX19, SNX17, SNX27, p40phox, PXK, and SNX16)”; on SNX17 it was “exclusive interaction with liposomes containing PtdIns3P (SNX3, SNX7, SNX19, SNX17”; on SNX27, “exclusive interaction with liposomes containing PtdIns3P (SNX3, SNX7, SNX19, SNX17, SNX27”. Further, the liposome pelleting result on SNX19 was “exclusive interaction with liposomes containing PtdIns3P (SNX3, SNX7, SNX19”; on PXK, “(SNX3, SNX7, SNX19, SNX17, SNX27, p40phox, PXK, and SNX16)”.
